From ChEMBL document CHEMBL1944555, “Selective and slow-binding inhibition of shikonin derivatives isolated from Lithospermum erythrorhizon on glycosyl hydrolase 33 and 34 sialidases” (Bioorg Med Chem, 2012)
Calls of active or inactive are those of the source. The calls are words filed in the database; no cut-off is given here.

Legend:
[1] = Inhibition of beta-glucosidase at 200 uM
[2] = Inhibition of rhamnosidase at 200 uM
[3] = target: Neuraminidase (Influenza A virus (strain A/Brevig Mission/1/1918 H1N1) (Influenza Avirus (strain A/South Carolina/1/1918 H1N1))) (UniProt Q9IGQ6); experiment: Noncompetitive inhibition of recombinant influenza A virus H1N1 A/Bervig_Mission/1/18 sialidase activity using 4-methylumbelliferyl-alpha-D-N-acetylneuraminic acid sodium salt hydrate as substrate by Lineweaver-Burk and Dixon plot analysis; settings: Influenza A virus (A/Brevig Mission/1/1918(H1N1))
Clostridium perfringens [4] = experiment: Inhibition of Clostridium perfringens ATCC 10543 sialidase Nan1 c-terminal catalytic domain using 4-methylumbelliferyl-alpha-D-N-acetylneuraminic acid sodium salt hydrate as substrate at IC50 concentration pre-incubated for 10 mins prior substrate addition by fluorimetric analysis; settings: TDE = time-dependent effect
[5] = Reversible inhibition of Clostridium perfringens ATCC 10543 sialidase Nan1 c-terminal catalytic domain using 4-methylumbelliferyl-alpha-D-N-acetylneuraminic acid sodium salt hydrate as substrate compound pre-incubated prior to substrate addition by fluorimetric analysis; settings: read-out: Ki(app)
[6] = Inhibition of alpha-glucosidase
[7] = target: Neuraminidase (Influenza A virus (strain A/Brevig Mission/1/1918 H1N1) (Influenza Avirus (strain A/South Carolina/1/1918 H1N1))) (UniProt Q9IGQ6); experiment: (§1) Inhibition of recombinant influenza A virus H1N1 A/Bervig_Mission/1/18 sialidase activity using 4-methylumbelliferyl-alpha-D-N-acetylneuraminic acid sodium salt hydrate as substrate by fluorimetric analysis; settings: Influenza A virus (A/Brevig Mission/1/1918(H1N1))
[8] = target: Neuraminidase (Influenza A virus (strain A/Brevig Mission/1/1918 H1N1) (Influenza Avirus (strain A/South Carolina/1/1918 H1N1)), UniProt Q9IGQ6); experiment: as §1; design: species or system Influenza A virus (A/Brevig Mission/1/1918(H1N1))
Clostridium perfringens [9] = experiment: (§2) Inhibition of Clostridium perfringens ATCC 10543 sialidase Nan1 c-terminal catalytic domain using 4-methylumbelliferyl-alpha-D-N-acetylneuraminic acid sodium salt hydrate as substrate by fluorimetric analysis
[10] = as §2
Clostridium perfringens [11] = experiment: Competitive inhibition of Clostridium perfringens ATCC 10543 sialidase Nan1 c-terminal catalytic domain using 4-methylumbelliferyl-alpha-D-N-acetylneuraminic acid sodium salt hydrate as substrate by Lineweaver-Burk and Dixon plot analysis
[12] = Inhibition of alpha-glucosidase at 200 uM
[13] = target: Neuraminidase (Influenza A virus (strain A/Brevig Mission/1/1918 H1N1) (Influenza Avirus (strain A/South Carolina/1/1918 H1N1))) (UniProt Q9IGQ6); experiment: Inhibition of recombinant influenza A virus H1N1 A/Bervig_Mission/1/18 sialidase activity using 4-methylumbelliferyl-alpha-D-N-acetylneuraminic acid sodium salt hydrate as substrate at 200 uM by fluorimetric analysis; settings: Influenza A virus (A/Brevig Mission/1/1918(H1N1))

Sequence of Neuraminidase (Influenza A virus (strain A/Brevig Mission/1/1918 H1N1) (Influenza Avirus (strain A/South Carolina/1/1918 H1N1))) (Q9IGQ6 whole entry, the tested form may be a part): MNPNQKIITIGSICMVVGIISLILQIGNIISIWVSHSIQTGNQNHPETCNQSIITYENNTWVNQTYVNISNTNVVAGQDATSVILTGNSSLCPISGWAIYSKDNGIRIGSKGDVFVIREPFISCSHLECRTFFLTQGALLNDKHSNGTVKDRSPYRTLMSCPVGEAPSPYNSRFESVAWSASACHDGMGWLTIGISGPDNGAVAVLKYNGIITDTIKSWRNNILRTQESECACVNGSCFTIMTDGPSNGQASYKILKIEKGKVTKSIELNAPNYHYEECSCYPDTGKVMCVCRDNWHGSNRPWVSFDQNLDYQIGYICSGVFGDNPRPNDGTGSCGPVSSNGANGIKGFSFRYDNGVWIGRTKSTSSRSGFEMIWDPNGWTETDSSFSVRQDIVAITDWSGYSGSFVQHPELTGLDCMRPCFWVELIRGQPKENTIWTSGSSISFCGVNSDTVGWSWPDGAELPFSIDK
Sequence of Neuraminidase (Influenza A virus (strain A/Brevig Mission/1/1918 H1N1) (Influenza Avirus (strain A/South Carolina/1/1918 H1N1)), UniProt Q9IGQ6) (Q9IGQ6 whole entry, the tested form may be a part): as above

SMILES | inhibition [1] | inhibition [2] | inhibition [3] | inhibition (Clostridium perfringens [4]) | Ki [5] [µM] | IC50 [6] [µM] | inhibition [7] | IC50 [8] [µM] | inhibition (Clostridium perfringens [9]) | IC50 [10] [µM] | Kic (Clostridium perfringens [11]) [µM] | inhibition [12] | inhibition [13]
CC(=O)O[C@H](CC=C(C)C)C1=CC(=O)c2c(O)ccc(O)c2C1=O [ACETYLSHIKONIN] | inactive | inactive | Active | tde | 1.01 | 158 | Dose-dependent effect | 41.4 | Dose-dependent effect | 2.5 | 1.1 | – | –
CC(C)=CC[C@@H](OC(=O)CC(C)(C)O)C1=CC(=O)c2c(O)ccc(O)c2C1=O [BETA-HYDROXYISOVALERYLSHIKONIN] | inactive | inactive | Active | tde | 2.24 | – | Dose-dependent effect | 40.5 | Dose-dependent effect | 3.4 | 0.8 | inactive | –
CC(C)=CCCC1=CC(=O)c2c(O)ccc(O)c2C1=O [DEOXYSHIKONIN] | inactive | inactive | Active | tde | 11.9 | – | Dose-dependent effect | 63.4 | Dose-dependent effect | 27.5 | 15.9 | inactive | –
CC(C)=CC[C@@H](OC(=O)C=C(C)C)C1=CC(=O)c2c(O)ccc(O)c2C1=O [DIMETHYLACRYLSHIKONIN] | inactive | inactive | Active | tde | 1.75 | 141 | Dose-dependent effect | 47.3 | Dose-dependent effect | 1.9 | 0.6 | – | –
CC(C)=CC[C@@H](OC(=O)C(C)C)C1=CC(=O)c2c(O)ccc(O)c2C1=O [ISOBUTYLSHIKONIN] | inactive | inactive | Active | tde | 0.26 | 144 | Dose-dependent effect | 40.5 | Dose-dependent effect | 2.9 | 0.9 | – | –
CC(C)=CC[C@@H](O)C1=CC(=O)c2c(O)ccc(O)c2C1=O [SHIKONIN] | inactive | inactive | Active | tde | 58.8 | – | Dose-dependent effect | 34.1 | Dose-dependent effect | 53.8 | 21.4 | inactive | –
CC(C)=CCC(OC(=O)CC(C)C)c1coc(-c2cc(O)ccc2O)c1 (configuration not stated) [SHIKONOFURAN C] | inactive | inactive | – | tde | 0.15 | 20.8 | – | > 100 | Dose-dependent effect | 0.6 | 0.2 | – | inactive
CC(C)=CCC(OC(=O)C(C)C)c1coc(-c2cc(O)ccc2O)c1 (configuration not stated) [SHIKONOFURAN D] | inactive | inactive | – | tde | 0.21 | 37.8 | – | > 100 | Dose-dependent effect | 1 | 0.3 | – | inactive
CC(C)=CCC(OC(=O)C=C(C)C)c1coc(-c2cc(O)ccc2O)c1 (configuration not stated) [SHIKONOFURAN E] | inactive | inactive | – | tde | 0.05 | 26.6 | – | > 100 | Dose-dependent effect | 0.2 | 0.1 | – | inactive
OCC(CO)N[C@H]1C[C@](O)(CO)[C@@H](O)[C@H](O)[C@H]1O [VOGLIBOSE] | – | – | – | – | – | 23.4 | – | – | – | – | – | – | –
